Source: PubChem BioAssay (NCI)
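Assay format: 96-well plates, 48-hour exposure. Definition used: TGI = concentration required for complete inhibition of growth.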

How the values were obtained:
Assay in all cases: NCI-60 cell line screen, 48 h
EKVX NSCLC = system: EKVX NSCLC
HL-60(TB) leukemia = system: HL-60(TB) leukemia
NCI-H226 lung = system: NCI-H226 lung
MDA-MB-435 = system: MDA-MB-435
HT29 colon = system: HT29 colon
SW-620 colon = system: SW-620 colon
HOP-62 NSCLC = system: HOP-62 NSCLC
HCT-15 colon = system: HCT-15 colon
RPMI-8226 leukemia = system: RPMI-8226 leukemia
LOX IMVI melanoma = system: LOX IMVI melanoma
SF-539 CNS = system: SF-539 CNS
CCRF-CEM leukemia = system: CCRF-CEM leukemia
DU-145 prostate = system: DU-145 prostate
SK-MEL-5 melanoma = system: SK-MEL-5 melanoma
IGROV1 ovarian = system: IGROV1 ovarian
OVCAR-5 ovarian = system: OVCAR-5 ovarian
SN12C renal = system: SN12C renal
SK-OV-3 ovarian = system: SK-OV-3 ovarian
SR leukemia = system: SR leukemia
KM12 colon = system: KM12 colon
786-0 renal = system: 786-0 renal
COLO 205 colon = system: COLO 205 colon
NCI-H23 lung = system: NCI-H23 lung
U251 CNS = system: U251 CNS
BT-549 breast = system: BT-549 breast
K-562 leukemia = system: K-562 leukemia
ACHN renal = system: ACHN renal
UACC-62 melanoma = system: UACC-62 melanoma
UACC-257 melanoma = system: UACC-257 melanoma
OVCAR-4 ovarian = system: OVCAR-4 ovarian
NCI/ADR-RES ovarian = system: NCI/ADR-RES ovarian
PC-3 prostate = system: PC-3 prostate
SF-295 CNS = system: SF-295 CNS
HOP-92 NSCLC = system: HOP-92 NSCLC
OVCAR-8 ovarian = system: OVCAR-8 ovarian
A549 NSCLC = system: A549 NSCLC
SK-MEL-28 melanoma = system: SK-MEL-28 melanoma
SF-268 CNS = system: SF-268 CNS
SNB-19 CNS = system: SNB-19 CNS
T-47D breast = system: T-47D breast
UO-31 renal = system: UO-31 renal
MOLT-4 leukemia = system: MOLT-4 leukemia
SK-MEL-2 melanoma = system: SK-MEL-2 melanoma
MALME-3M melanoma = system: MALME-3M melanoma
HCT-116 colon = system: HCT-116 colon
A498 renal = system: A498 renal
NCI-H522 lung = system: NCI-H522 lung
HS 578T breast = system: HS 578T breast
MDA-MB-231 breast = system: MDA-MB-231 breast
MCF7 breast = system: MCF7 breast
MDA-N = system: MDA-N
TK-10 renal = system: TK-10 renal
OVCAR-3 ovarian = system: OVCAR-3 ovarian
M14 melanoma = system: M14 melanoma
CAKI-1 renal = system: CAKI-1 renal
SNB-75 CNS = system: SNB-75 CNS
NCI-H460 lung = system: NCI-H460 lung
RXF 393 renal = system: RXF 393 renal

## COc1ccc2c3c1O[C@H]1[C@@H](O)CC[C@@]4(O)[C@@H](C2)N(C)CC[C@]314
EKVX NSCLC
  TGI: > 100 µM
HL-60(TB) leukemia
  TGI: > 100 µM
NCI-H226 lung
  TGI: > 100 µM
MDA-MB-435
  TGI: > 100 µM
HT29 colon
  TGI: > 100 µM
SW-620 colon
  TGI: > 100 µM
HOP-62 NSCLC
  TGI: > 100 µM
HCT-15 colon
  TGI: > 100 µM
RPMI-8226 leukemia
  TGI: > 100 µM
LOX IMVI melanoma
  TGI: > 100 µM
SF-539 CNS
  TGI: > 100 µM
CCRF-CEM leukemia
  TGI: > 100 µM
DU-145 prostate
  TGI: > 100 µM
SK-MEL-5 melanoma
  TGI: > 100 µM
IGROV1 ovarian
  TGI: > 100 µM
OVCAR-5 ovarian
  TGI: > 100 µM
SN12C renal
  TGI: > 100 µM
SK-OV-3 ovarian
  TGI: > 100 µM
SR leukemia
  TGI: > 100 µM
KM12 colon
  TGI: > 100 µM
786-0 renal
  TGI: > 100 µM
COLO 205 colon
  TGI: > 100 µM
NCI-H23 lung
  TGI: > 100 µM
U251 CNS
  TGI: > 100 µM
BT-549 breast
  TGI: > 100 µM
K-562 leukemia
  TGI: > 100 µM
ACHN renal
  TGI: > 100 µM
UACC-62 melanoma
  TGI: > 100 µM
UACC-257 melanoma
  TGI: > 100 µM
OVCAR-4 ovarian
  TGI: > 100 µM
NCI/ADR-RES ovarian
  TGI: > 100 µM
PC-3 prostate
  TGI: > 100 µM
SF-295 CNS
  TGI: > 100 µM
HOP-92 NSCLC
  TGI: > 100 µM
OVCAR-8 ovarian
  TGI: > 100 µM
A549 NSCLC
  TGI: > 100 µM
SK-MEL-28 melanoma
  TGI: > 100 µM
SF-268 CNS
  TGI: > 100 µM
SNB-19 CNS
  TGI: > 100 µM
T-47D breast
  TGI: > 100 µM
UO-31 renal
  TGI: > 100 µM
MOLT-4 leukemia
  TGI: > 100 µM
SK-MEL-2 melanoma
  TGI: > 100 µM
MALME-3M melanoma
  TGI: > 100 µM
HCT-116 colon
  TGI: > 100 µM
A498 renal
  TGI: > 100 µM
NCI-H522 lung
  TGI: > 100 µM
HS 578T breast
  TGI: > 100 µM
MDA-MB-231 breast
  TGI: > 100 µM
MCF7 breast
  TGI: > 100 µM
MDA-N
  TGI: > 100 µM
TK-10 renal
  TGI: > 100 µM
OVCAR-3 ovarian
  TGI: > 100 µM
M14 melanoma
  TGI: > 100 µM
CAKI-1 renal
  TGI: > 100 µM

## COc1ccc(/C=C/c2nsc(/C=C/c3ccc(OC)cc3)n2)cc1
EKVX NSCLC
  TGI: > 100 µM
HL-60(TB) leukemia
  TGI: > 100 µM
NCI-H226 lung
  TGI: > 100 µM
MDA-MB-435
  TGI: > 100 µM
HT29 colon
  TGI: > 100 µM
SNB-75 CNS
  TGI: > 100 µM
HOP-62 NSCLC
  TGI: > 100 µM
HCT-15 colon
  TGI: > 100 µM
RPMI-8226 leukemia
  TGI: > 100 µM
LOX IMVI melanoma
  TGI: > 100 µM
SF-539 CNS
  TGI: > 100 µM
CCRF-CEM leukemia
  TGI: > 100 µM
DU-145 prostate
  TGI: > 100 µM
SK-MEL-5 melanoma
  TGI: > 100 µM
IGROV1 ovarian
  TGI: > 100 µM
OVCAR-5 ovarian
  TGI: > 100 µM
SK-OV-3 ovarian
  TGI: > 100 µM
SR leukemia
  TGI: > 100 µM
KM12 colon
  TGI: > 100 µM
786-0 renal
  TGI: 41.8 µM
COLO 205 colon
  TGI: > 100 µM
U251 CNS
  TGI: > 100 µM
BT-549 breast
  TGI: > 100 µM
K-562 leukemia
  TGI: > 100 µM
ACHN renal
  TGI: > 100 µM
UACC-257 melanoma
  TGI: > 100 µM
OVCAR-4 ovarian
  TGI: > 100 µM
NCI/ADR-RES ovarian
  TGI: > 100 µM
PC-3 prostate
  TGI: > 100 µM
SF-295 CNS
  TGI: > 100 µM
HOP-92 NSCLC
  TGI: > 100 µM
OVCAR-8 ovarian
  TGI: > 100 µM
A549 NSCLC
  TGI: > 100 µM
SK-MEL-28 melanoma
  TGI: > 100 µM
SF-268 CNS
  TGI: > 100 µM
SNB-19 CNS
  TGI: > 100 µM
T-47D breast
  TGI: > 100 µM
UO-31 renal
  TGI: > 100 µM
MOLT-4 leukemia
  TGI: > 100 µM
SK-MEL-2 melanoma
  TGI: > 100 µM
MALME-3M melanoma
  TGI: > 100 µM
HCT-116 colon
  TGI: > 100 µM
A498 renal
  TGI: > 100 µM
NCI-H522 lung
  TGI: > 100 µM
HS 578T breast
  TGI: > 100 µM
NCI-H460 lung
  TGI: 88.7 µM
MDA-MB-231 breast
  TGI: > 100 µM
RXF 393 renal
  TGI: > 100 µM
MCF7 breast
  TGI: > 100 µM
MDA-N
  TGI: > 100 µM
TK-10 renal
  TGI: > 100 µM
OVCAR-3 ovarian
  TGI: > 100 µM
M14 melanoma
  TGI: > 100 µM
CAKI-1 renal
  TGI: > 100 µM
